In US20080306056A1, “PYRAZOLE-DERIVATIVES AS FACTOR Xa INHIBITORS” (SANOFI-AVENTIS DEUTSCHLAND GMBH, priority 2002, published 2008):

molecular target: T1, human factor Xa (Homo sapiens, UniProt P00742); assay: Factor Xa assay (chromogenic, purified enzyme); assay type: biochemical; conditions: inhibition constant for factor Xa; chromogenic substrate S-2765 140 μM, enzyme 0.5 nM, 25° C., pH 7.8; Ki=IC50/{1+(substrate concentration/Km)}; read-out: Ki(FXa)
T1 construct: 25 μl human factor Xa (Enzyme Research Laboratories, Inc; South Bend, Ind.); purchased Enzyme Research Laboratories, Inc; South Bend, Ind
From the text: The ability of the compound of formulae I, Ib and Ic to inhibit factor Xa or factor VIIa or other enzymes like thrombin, plasmin, or trypsin can be assessed by determining the concentration of the compound of the formulae I, Ib and Ic that inhibits enzyme activity by 50%, i.e. the IC50 value, which was related to the inhibition constant Ki. Purified enzymes were used in chromogenic assays. The concentration of inhibitor that causes a 50% decrease in the rate of substrate hydrolysis was determined by linear regression after plotting the relative rates of hydrolysis (compared to the uninhibited control) versus the log of the concentration of the compound of formulae I, Ib and Ic. For calculating the inhibition constant Ki, the IC50 value was corrected for competition with substrate using the formula wherein Km is the Michaelis-Menten constant (Chen and Prusoff, Biochem.
Ki=IC50/{1+(substrate concentration/Km)}
Pharmacol. 22 (1973) 3099-3108; I. H. Segal, Enzyme Kinetics, 1975, John Wiley & Sons, New York, 100-125; which were incorporated herein by reference).
The IC50 was determined by combining in appropriate wells of a Costar half-area microtiter plate 25 μl human factor Xa (Enzyme Research Laboratories, Inc.; South Bend, Ind.) in TBS-PEG; 40 μl 10% (v/v) DMSO in TBS-PEG (uninhibited control) or various concentrations of the compound to be tested diluted in 10% (v/v) DMSO in TBS-PEG; and substrate S-2765 (N(α)-benzyloxycarbonyl-D-Arg-Gly-L-Arg-p-nitroanilide; Kabi Pharmacia, Inc.; Franklin, Ohio) in TBS-PEG.
The assay was performed by pre-incubating the compound of formulae I, Ib and Ic plus enzyme for 10 min. Then the assay was initiated by adding substrate to obtain a final volume of 100 μl. The initial velocity of chromogenic substrate hydrolysis was measured by the change in absorbance at 405 nm using a Bio-tek Instruments kinetic plate reader (Ceres UV900HDi) at 25° C. during the linear portion of the time course (usually 1.5 min after addition of substrate). The enzyme concentration was 0.5 nM and substrate concentration was 140 μM.
The inhibitory activity towards factor VIIa/tissue factor activity was determined using a chromogenic assay essentially as described previously (J. A. Ostrem et al., Biochemistry 37 (1998) 1053-1059 which was incorporated herein by reference). Kinetic assays were conducted at 25° C. in half-area microtiter plates (Costar Corp., Cambridge, Mass.) using a kinetic plate reader (Molecular Devices Spectramax 250). A typical assay consisted of 25 μl human factor VIIa and TF (5 nM and 10 nM, respective final concentration) combined with 40 μl of inhibitor dilutions in 10% DMSO/TBS-PEG buffer (50 mM Tris, 15 mM NaCl, 5 mM CaCl2, 0.05% PEG 8000, pH 8.15). Following a 15 minute preincubation period, the assay was initiated by the addition of 35 μl of the chromogenic substrate S-2288 (D-Ile-Pro-Arg-p-nitroanilide, Pharmacia Hepar Inc., 500 μM final concentration).

T1 sequence (P00742 235-488 limits assumed): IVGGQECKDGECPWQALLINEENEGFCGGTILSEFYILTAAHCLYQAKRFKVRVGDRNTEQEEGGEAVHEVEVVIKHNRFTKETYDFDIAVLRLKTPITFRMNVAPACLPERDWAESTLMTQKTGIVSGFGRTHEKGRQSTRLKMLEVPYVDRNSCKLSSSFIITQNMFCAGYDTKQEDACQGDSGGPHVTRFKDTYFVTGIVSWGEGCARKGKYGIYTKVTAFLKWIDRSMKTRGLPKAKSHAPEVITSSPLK
T1 sequence (P00742 41-179 partner limits assumed): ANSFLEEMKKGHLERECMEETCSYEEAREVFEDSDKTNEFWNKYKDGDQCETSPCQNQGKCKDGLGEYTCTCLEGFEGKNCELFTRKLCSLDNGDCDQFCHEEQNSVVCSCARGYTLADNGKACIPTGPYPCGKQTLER

Structure (SMILES)	Ki
COCCNC(=O)c1cc(C(=O)NC2CCN(C(C)C)CC2)n(Cc2cc(-c3ccc(Cl)s3)on2)n1 [Example 47, 1-[5-(5-Chloro-thiophen-2-yl)-isoxazol-3-ylmethyl]-1H-pyrazole-3,5-dicarboxylic acid 5-[(1-isopropyl-piperidin-4-yl)-amide] 3-[(2-methoxy-ethyl)-amide]]	86 nM
COC[C@H]1CC[C@H](COC)N1C(=O)c1cc(C(=O)NC2CCN(C(C)C)CC2)n(Cc2cc(-c3ccc(Cl)s3)on2)n1 [Example 67, 5-(2R,5R,2,5-Bis-methoxymethyl-pyrrolidine-1-carbonyl)-2-[5-(5-chloro-thiophen-2-yl)-isoxazol-3-ylmethyl]-2H-pyrazole-3-carboxylic acid (1-isopropyl-piperidin-4-yl)-amide]	420 nM
CC(C)N1CCC(NC(=O)c2cc(C(=O)NCCO)nn2Cc2cc(-c3ccc(Cl)s3)on2)CC1 [Example 27, 1-[5-(5-Chloro-thiophen-2-yl)-isoxazol-3-ylmethyl]-1H-pyrazole-3,5-dicarboxylic acid 3-[(2-hydroxy-ethyl)-amide] 5-[(1-isopropyl-piperidin-4-yl)-amide]]	88 nM
CC(C)N1CCC(NC(=O)c2cc(C(=O)NCCS(N)(=O)=O)n(Cc3cc(-c4ccc(Cl)s4)on3)n2)CC1 [Example 87, 1-[5-(5-Chloro-thiophen-2-yl)-isoxazol-3-ylmethyl]-1H-pyrazole-3,5-dicarboxylic acid 3-[(1-isopropyl-piperidin-4-yl)-amide] 5-[(2-sulfamoyl-ethyl)-amide]]	181 nM
CC(C)N1CCC(NC(=O)c2cc(C(=O)NCCN3CCNC3=O)nn2Cc2cc(-c3ccc(Cl)s3)on2)CC1 [Example 73, 1-[5-(5-Chloro-thiophen-2-yl)-isoxazol-3-ylmethyl]-1H-pyrazole-3,5-dicarboxylic acid 5-[(1-isopropyl-piperidin-4-yl)-amide] 3-{[2-(2-oxo-imidazolidin-1-yl)-ethyl]-amide}]	83 nM
CC(C)N1CCC(NC(=O)c2cc(C(=O)NC(CO)(CO)CO)nn2Cc2cc(-c3ccc(Cl)s3)on2)CC1 [Example 89, 1-[5-(5-Chloro-thiophen-2-yl)-isoxazol-3-ylmethyl]-1H-pyrazole-3,5-dicarboxylic acid 3-[(2-hydroxy-1,1-bis-hydroxymethyl-ethyl)-amide] 5-[(1-isopropyl-piperidin-4-yl)-amide]]	192 nM
CC(C)N1CCC(NC(=O)c2cc(C(=O)NC3CC3)nn2Cc2cc(-c3ccc(Cl)s3)on2)CC1 [Example 45, 1-[5-(5-Chloro-thiophen-2-yl)-isoxazol-3-ylmethyl]-1H-pyrazole-3,5-dicarboxylic acid 3-cyclopropylamide 5-[(1-isopropyl-piperidin-4-yl)-amide]]	61 nM
COCCOCCOc1cc(C(=O)NC2CCN(C(C)C)CC2)n(CC(=O)Nc2ccc(Cl)cn2)n1 [Example 104, 2-[(5-Chloro-pyridin-2-ylcarbamoyl)-methyl]-5-[2-(2-methoxy-ethoxy)-ethoxy]-2H-pyrazole-3-carboxylic acid (1-isopropyl-piperidin-4-yl)-amide]	25 nM
CC(C)N1CCC(NC(=O)c2cc(C(=O)NC3=NCCO3)nn2Cc2cc(-c3ccc(Cl)s3)on2)CC1 [Example 68, 1-[5-(5-Chloro-thiophen-2-yl)-isoxazol-3-ylmethyl]-1H-pyrazole-3,5-dicarboxylic acid 3-[(4,5-dihydro-oxazol-2-yl)-amide] 5-[(1-isopropyl-piperidin-4-yl)-amide]]	99 nM
CC(C)N1CCC(NC(=O)c2cc(C(=O)NC3CCC3)nn2Cc2cc(-c3ccc(Cl)s3)on2)CC1 [Example 46, 1-[5-(5-Chloro-thiophen-2-yl)-isoxazol-3-ylmethyl]-1H-pyrazole-3,5-dicarboxylic acid 3-cyclobutylamide 5-[(1-isopropyl-piperidin-4-yl)-amide]]	106 nM

More lines, now with the values ahead:

Ki	Structure (SMILES)
20 nM	CC(C)N1CCC(NC(=O)c2cc(C(=O)OCCO)nn2CC(=O)Nc2ccc(Cl)cn2)CC1 [Example 107, 1-[(5-Chloro-pyridin-2-ylcarbamoyl)-methyl]-5-(1-isopropyl-piperidin-4-ylcarbamoyl)-1H-pyrazole-3-carboxylic acid 2-hydroxy-ethyl ester]
144 nM	CC(C)N1CCC(NC(=O)c2nn(Cc3cc(-c4ccc(Cl)s4)on3)cc2C#N)CC1 [Example 56, 1-[5-(5-Chloro-thiophen-2-yl)-isoxazol-3-ylmethyl]-4-cyano-1H-pyrazole-3-carboxylic acid (1-isopropyl-piperidin-4-yl)-amide]
99 nM	CC(C)N1CCC(NC(=O)c2c(C#N)cnn2Cc2cc(-c3ccc(Cl)s3)on2)CC1 [Example 55, 2-[5-(5-Chloro-thiophen-2-yl)-isoxazol-3-ylmethyl]-4-cyano-2H-pyrazole-3-carboxylic acid (1-isopropyl-piperidin-4-yl)-amide]
49 nM	CC(C)N1CCC(NC(=O)c2cc(C(=O)OCC(=O)O)nn2Cc2cc(-c3ccc(Cl)s3)on2)CC1 [Example 111, 1-[5-(5-Chloro-thiophen-2-yl)-isoxazol-3-ylmethyl]-5-(1-isopropyl-piperidin-4-ylcarbamoyl)-1H-pyrazole-3-carboxylic acid carboxymethyl ester]
300 nM	CC(C)N1CCC(NC(=O)c2cc(-c3ccc(Cl)s3)nn2Cc2cc(-c3ccc(Cl)s3)on2)CC1 [Example 5, 5-(5-Chloro-thiophen-2-yl)-2-[5-(5-chloro-thiophen-2-yl)-isoxazol-3-ylmethyl]-2H-pyrazole-3-carboxylic acid (1-isopropyl-piperidin-4-yl)-amide]
142 nM	CC(C)N1CCC(NC(=O)c2cc(C(=O)N3CCC(N4CCCC4=O)CC3)nn2Cc2cc(-c3ccc(Cl)s3)on2)CC1 [Example 81, 2-[5-(5-Chloro-thiophen-2-yl)-isoxazol-3-ylmethyl]-5-[4-(2-oxo-pyrrolidin-1-yl)-piperidine-1-carbonyl]-2H-pyrazole-3-carboxylic acid (1-isopropyl-piperidin-4-yl)-amide]
152 nM	COC[C@@H]1CCCN1C(=O)c1cc(C(=O)NC2CCN(C(C)C)CC2)n(Cc2cc(-c3ccc(Cl)s3)on2)n1 [Example 66, 2-[5-(5-Chloro-thiophen-2-yl)-isoxazol-3-ylmethyl]-5-(2S,2-methoxymethyl-pyrrolidine-1-carbonyl)-2H-pyrazole-3-carboxylic acid (1-isopropyl-piperidin-4-yl)-amide]
134 nM	CC(C)N1CCC(NC(=O)c2cc(C(=O)N3CC[C@H]3C(=O)O)nn2Cc2cc(-c3ccc(Cl)s3)on2)CC1 [Example 63, 1-[1-[5-(5-Chloro-thiophen-2-yl)-isoxazol-3-ylmethyl]-5-(1-isopropyl-piperidin-4-ylcarbamoyl)-1H-pyrazole-3-carbonyl]-(2S)-azetidine-2-carboxylic acid]
83 nM	CCCc1c(C#N)c(C(=O)NC2CCN(C(C)C)CC2)nn1Cc1cc(-c2ccc(Cl)s2)on1 [Example 11, 1-[5-(5-Chloro-thiophen-2-yl)-isoxazol-3-ylmethyl]-4-cyano-5-propyl-1H-pyrazole-3-carboxylic acid (1-isopropyl-piperidin-4-yl)-amide]
122 nM	CC(C)N1CCC(NC(=O)c2cc(C(=O)N3CCC(O)C3)nn2Cc2cc(-c3ccc(Cl)s3)on2)CC1 (stereo not drawn) [Example 36, 2-[5-(5-Chloro-thiophen-2-yl)-isoxazol-3-ylmethyl]-5-(3-hydroxy-pyrrolidine-1-carbonyl)-2H-pyrazole-3-carboxylic acid (1-isopropyl-piperidin-4-yl)-amide]
80 nM	CC(C)N1CCC(NC(=O)c2cc(C(=O)NC(C(=O)O)C(F)(F)F)nn2Cc2cc(-c3ccc(Cl)s3)on2)CC1 (stereo not drawn) [Example 79, 2-{[1-[5-(5-Chloro-thiophen-2-yl)-isoxazol-3-ylmethyl]-5-(1-isopropyl-piperidin-4-ylcarbamoyl)-1H-pyrazole-3-carbonyl]-amino}-3,3,3-trifluoro-propionic acid]
